Test results taken from US20050288300A1, “Methods of use fluoroquinolone compounds against maxillary sinus pathogenic bacteria” (LG Life Sciences Limited., priority 1999, published 2005).
≈ marks a conversion by molar mass, not a printed value.

What was measured:
Type in all cases: cell-based
Staphylococcus aureus = assay: MIC by agar dilution, maxillary sinus isolates; settings: S. aureus (n = 31)
Experimental: (§1) Test strains were obtained from recent maxillary sinus aspiration. Identification of organisms was by standard methods (see, for example, Murray, P. R., et al. Manual of Clinical Microbiology. 6th ed. American Society of Microbiology 1995: 282-620).
(§2) Antimicrobial activity was tested against 250 selected isolates (Table 1).
(§3) The agar dilution method using replicate plating of the organisms onto a series of agar plates of increasing concentrations was used (see, for example, National Committee for Clinical Laboratory Standards. Methods for antimicrobial susceptibility tests for bacteria that growth aerobically. Approved standards M 7-A4. National Committee for Laboratory Standards, Villanova, Pa., 1997).
(§4) MICs were determined by using doubling dilutions of between 0.02-256 mg/L with an inoculum of 10^4 CFU in area of 5-8 mm.
(§5) Haemophilus Test Medium was used for Haemophilus spp. and Wilkins-Chalgren agar was used for anaerobes.

[1] = MIC by agar dilution, maxillary sinus isolates; settings: Streptococcus spp.: 5 Enterobacteriaceae, 6 non-fermentative Gram negative bacilli, 2 Neisseria meningitidis, 2 beta-haemolytic Streptococcus
Experimental: as §1, §2, §3, §4, §5

Haemophilus influenzae = assay: MIC by agar dilution, maxillary sinus isolates; settings: H. influenzae (n = 45); for MIC / MIC50 / MIC90: Haemophilus influenzae; for MIC: 24 h
Experimental: as §1, §2, §3, §4, §5

Streptococcus pneumoniae = assay: MIC by agar dilution, maxillary sinus isolates; settings: S. pneumoniae (n = 85); for MIC / MIC90 / MIC50: Streptococcus pneumoniae; for MIC: 24 h
Experimental: as §1, §2, §3, §4, §5

[2] = system: Haemophilus parainfluenzae; assay: MIC by agar dilution, maxillary sinus isolates; settings: H. parainfluenzae (n = 10); for MIC: 24 h
Experimental: as §1, §2, §3, §4, §5

Anaerobic strains = assay: MIC by agar dilution, maxillary sinus isolates; settings: for MIC: 24 h, Anaerobic strains (n = 22): 12 Bacteroides spp., 7 Peptostreptococcus spp., 3 Bacteroides urealyticus
Experimental: as §1, §2, §3, §4, §5

Moraxella catarrhalis = assay: MIC by agar dilution, maxillary sinus isolates; settings: M. catarrhalis (n = 45); for MIC / MIC50 / MIC90: Moraxella catarrhalis; for MIC: 24 h
Experimental: as §1, §2, §3, §4, §5

Streptococcus spp. = assay: MIC by agar dilution, maxillary sinus isolates; settings: Streptococcus spp. (various other strains, 15)
Experimental: as §1, §2, §3, §4, §5

| MIC Range (Staphylococcus aureus) | MIC (Haemophilus influenzae) | MIC50 (Haemophilus influenzae) | MIC90 (Haemophilus influenzae) | MIC (Streptococcus pneumoniae) | MIC [2] | MIC (Anaerobic strains) | MIC (Moraxella catarrhalis) | MIC50 (Moraxella catarrhalis) | MIC 90% (Streptococcus pneumoniae) | MIC90 (Streptococcus pneumoniae) | MIC50 (Anaerobic strains; Anaerobic strains (n = 22)) | MIC50 (Staphylococcus aureus; Staphylococcus aureus) | SMILES | MIC Range [1] | further results |
| --- | --- | --- | --- | --- | --- | --- | --- | --- | --- | --- | --- | --- | --- | --- | --- |
| 0.03 to 1 µg/mL | 0.02 to 0.03 µg/mL (≈ 0.0514 to 0.077 µM) | ≤ 0.02 µg/mL | ≤ 0.02 µg/mL | 0.02 to 0.06 µg/mL (≈ 0.0514 to 0.154 µM) | 0.02 to 0.12 µg/mL (≈ 0.0514 to 0.308 µM) | 0.03 to 0.25 µg/mL (≈ 0.077 to 0.642 µM) | 0.02 to 0.03 µg/mL (≈ 0.0514 to 0.077 µM) | ≤ 0.02 µg/mL | – | – | – | – | CO/N=C1\CN(c2nc3c(cc2F)c(=O)c(C(=O)O)cn3C2CC2)CC1CN (racemic) [Gemifloxacin, (R,S)-7-(3-aminomethyl-4-methoxyiminopyrrolidin-1-yl)-1-cyclopropyl-6-fluoro-4-oxo-1,4-dihydro-1,8-naphthyridine-3-carboxylic acid] | ≦0.02-0.5 mg/L | MIC 90% (Haemophilus influenzae): ≦0.02 mg/L; MIC 90% (Moraxella catarrhalis): ≦0.02 mg/L; MIC90 (Moraxella catarrhalis): ≤ 0.02 µg/mL |
| – | 0.03 to 1 µg/mL (≈ 0.0765 to 2.55 µM) | – | – | 0.03 to 0.5 µg/mL (≈ 0.0765 to 1.27 µM) | – | 0.25 to 16 µg/mL (≈ 0.637 to 40.8 µM) | 0.02 to 1 µg/mL (≈ 0.051 to 2.55 µM) | ≤ 0.02 µg/mL | 0.5 µg/mL (≈ 1.27 µM) | ≥ 0.25 µg/mL | – | – | C[C@@H]1CN(c2c(F)c(N)c3c(=O)c(C(=O)O)cn(C4CC4)c3c2F)C[C@H](C)N1 [Sparfloxacin] | ≦0.02-0.5 mg/L | – |
| 0.06 to 2 µg/mL | – | 0.25 µg/mL (≈ 0.684 µM) | 2 µg/mL (≈ 5.47 µM) | 0.02 to 1 µg/mL (≈ 0.0547 to 2.74 µM) | 0.03 to 1 µg/mL (≈ 0.0821 to 2.74 µM) | – | 0.02 to 16 µg/mL (≈ 0.0547 to 43.8 µM) | – | – | 0.03 µg/mL (≈ 0.0821 µM) | 0.25 µg/mL (≈ 0.684 µM) | – | CC1(C)S[C@@H]2[C@H](NC(=O)[C@H](N)c3ccc(O)cc3)C(=O)N2[C@H]1C(=O)O [Amoxycillin] | – | MIC 90% (Staphylococcus aureus): 1 µg/mL (≈ 2.74 µM); MIC90 (Staphylococcus aureus; Staphylococcus aureus): ≥ 1 µg/mL; MIC50 (Streptococcus pneumoniae): 0.03 µg/mL (≈ 0.0821 µM); MIC50 [2]: 0.06 µg/mL (≈ 0.164 µM); MIC90 [2]: 1 µg/mL (≈ 2.74 µM); MIC50 (Streptococcus spp.): 2 µg/mL (≈ 5.47 µM); MIC90 (Streptococcus spp.): 4 µg/mL (≈ 10.9 µM) |
| 0.12 to 0.5 µg/mL | 0.02 to 0.03 µg/mL (≈ 0.0553 to 0.083 µM) | – | – | 0.12 to 2 µg/mL (≈ 0.332 to 5.53 µM) | 0.03 to 0.25 µg/mL (≈ 0.083 to 0.692 µM) | 0.12 to 1 µg/mL (≈ 0.332 to 2.77 µM) | 0.02 to 0.12 µg/mL (≈ 0.0553 to 0.332 µM) | – | 1 µg/mL (≈ 2.77 µM) | – | – | – | C[C@H]1COc2c(N3CCN(C)CC3)c(F)cc3c(=O)c(C(=O)O)cn1c23 [Levofloxacin] | 0.03 to 0.25 µg/mL | MIC50 (Streptococcus spp.): 0.12 µg/mL (≈ 0.332 µM) |
| 0.03 to 0.12 µg/mL | 0.02 to 0.12 µg/mL (≈ 0.0498 to 0.299 µM) | 0.13 µg/mL (≈ 0.324 µM) | – | – | – | – | – | – | – | – | – | – | COc1c(N2C[C@@H]3CCCN[C@@H]3C2)c(F)cc2c(=O)c(C(=O)O)cn(C3CC3)c12 [Moxifloxacin] | ≦0.02-0.5 mg/L | – |
| 0.06 to 0.25 µg/mL | 0.02 to 0.03 µg/mL (≈ 0.0556 to 0.0835 µM) | ≤ 0.02 µg/mL | ≤ 0.02 µg/mL | 0.03 to 0.5 µg/mL (≈ 0.0835 to 1.39 µM) | 0.02 to 0.12 µg/mL (≈ 0.0556 to 0.334 µM) | 0.25 to 8 µg/mL (≈ 0.696 to 22.3 µM) | 0.02 to 0.25 µg/mL (≈ 0.0556 to 0.696 µM) | ≤ 0.02 µg/mL | 0.25 µg/mL (≈ 0.696 µM) | ≥ 0.25 µg/mL | 0.25 µg/mL (≈ 0.696 µM) | 0.12 µg/mL (≈ 0.334 µM) | Cc1c(F)c(N2CCNC(C)C2)cc2c1c(=O)c(C(=O)O)cn2C1CC1 (centres unmarked) [Grepafloxacin] | ≦0.02-1 mg/L | MIC 90% (Haemophilus influenzae): ≦0.02 mg/L; MIC50 (Streptococcus pneumoniae): 0.25 µg/mL (≈ 0.696 µM); MIC90 [2]: 0.1 µg/mL (≈ 0.278 µM); MIC90 (Anaerobic strains; Anaerobic strains (n = 22)): 8 µg/mL (≈ 22.3 µM); MIC 90% (Moraxella catarrhalis): ≦0.02 mg/L; MIC90 (Moraxella catarrhalis): ≤ 0.02 µg/mL |
| 0.25 to 1 µg/mL | 0.02 to 0.06 µg/mL (≈ 0.0553 to 0.166 µM) | – | – | 0.25 to 4 µg/mL (≈ 0.692 to 11.1 µM) | – | 0.25 to 2 µg/mL (≈ 0.692 to 5.53 µM) | 0.02 to 0.25 µg/mL (≈ 0.0553 to 0.692 µM) | – | 2 µg/mL (≈ 5.53 µM) | – | 0.5 µg/mL (≈ 1.38 µM) | 0.5 µg/mL (≈ 1.38 µM) | CC1COc2c(N3CCN(C)CC3)c(F)cc3c(=O)c(C(=O)O)cn1c23 (centres unmarked) [Ofloxacin] | 0.06 to 0.5 µg/mL | – |
| – | 0.02 to 0.06 µg/mL (≈ 0.048 to 0.144 µM) | ≤ 0.02 µg/mL | – | 0.02 to 0.12 µg/mL (≈ 0.048 to 0.288 µM) | 0.02 to 0.12 µg/mL (≈ 0.048 to 0.288 µM) | 0.06 to 4 µg/mL (≈ 0.144 to 9.61 µM) | 0.02 to 0.06 µg/mL (≈ 0.048 to 0.144 µM) | ≤ 0.02 µg/mL | – | – | – | 0.03 µg/mL (≈ 0.0721 µM) | N[C@@H]1[C@H]2CN(c3nc4c(cc3F)c(=O)c(C(=O)O)cn4-c3ccc(F)cc3F)C[C@@H]12 [Trovafloxacin] | ≦0.02-0.5 mg/L | MIC 90% (Staphylococcus aureus): 0.03 µg/mL (≈ 0.0721 µM); MIC50 [2]: 0.03 µg/mL (≈ 0.0721 µM) |
